Experimental data: patent publication US20250213707A1, “COMPOUND FOR INCREASING EFFICACY OF ONCOLYTIC VIRUSES” (ABLEVIA BIOTECH GMBH, priority 2022, published 2025)

Columns and labels:
[1] = test system: mAb ADK8; assay: Epitope mapping of mAb ADK8 against AAV peptides; format: binding, mice
Text: Monoclonal antibody ADK8 was generated by immunizing mice with AAV8 capsids. It is directed against the assembled AAV8 capsid (Sonntag et al, 2011). […] Moreover, the binding of AAV8 to the nuclear membrane as well as the nuclear entry were abrogated following neutralization by ADK8. […] ADK8 also cross-reacts with capsid proteins from other AAV serotypes such as AAV1, AAV3, AAV7 (Mietzsch et al, 2014) and was therefore chosen as an example from which general conclusions about the present invention can be drawn.
As for the other antibodies (see examples above), several clusters were identified, delineating regions from which preferred peptides can be deduced. Most preferably, the peptides aligned below according to their binding strengths can be used for selective antibody depletion and detection as hereinabove.

[2] = test system: mAb Mac2-158; assay: Epitope mapping of mAb Mac2-158 with circular peptides of human CD163 SRCR domain 1; format: binding; conditions: circular peptides aligned to SRCR domain 1 of human CD163
Text: As a result, the following sequences (as well as motifs derived therefrom) are highly suitable epitopes anti-CD163 antibodies and fragments thereof used as SADC biopolymer scaffold: […]

[3] = test system: IgG from human donors (anti-AAV antibodies); assay: Screen for anti-AAV antibodies in human sera, 2452 linear 15-amino-acid AAV peptides on microarrays (Table 1); format: binding; parameters: key to group I: X: the deduplicated aggregate of the respective top 10 peptide hits for each donor was compiled and designated as group I; key to group II: X: the deduplicated aggregate of the respective top 25 peptide hits for each donor was compiled and designated as group II; key to group III: X: the deduplicated aggregate of the respective top 50 peptide hits for each donor was compiled and designated as group III; conditions: human donor IgG binding to linear 15-amino-acid AAV peptides on microarray, fluorescence; for group I: membership in deduplicated aggregate of top 10 peptide hits for each donor; for group II: membership in deduplicated aggregate of top 25 peptide hits for each donor; for group III: membership in deduplicated aggregate of top 50 peptide hits for each donor
Summary of the method: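 Protein G-purified IgG from human donor blood incubated with microarrays of 2452 linear 15-mer peptides from 16 AAVs; binding read by fluorescence. Background-subtracted signals ranked per donor, with top 10, 25, 50 and 250 hits pooled and deduplicated into groups I-IV.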

[4] = test system: mAb 9C12; assay: Epitope mapping of monoclonal antibody 9C12 against cyclic peptides of the AdV hexon protein (peptide microarray); format: binding, mice; conditions: cyclic 7mer, 10mer, 13mer peptides of AdV hexon
Method: Monoclonal antibody 9C12 (alias mAB TC31-9C12·C9-s) was generated by immunizing mice with the hexon protein (Uniprot ID: P04133 which corresponds to GenBank: BAG48782.1). […] In brief, diluted antibody was incubated with GFP-expressing replication-defective Ad vector and subsequently added to Hela cells followed by fluorescence readout. […] The binding signal of mAb 9C12 to the peptides yielded several candidates that could be aligned and clustered against the protein. An epitopic cluster region of 20 amino acids was identified from which paratope binding peptides can be preferentially derived. Below are the aligments of the corresponding peptide hits from this screen. […] Cyclic peptides were selected out of up to 50 top binders in this experiment.

Row | Substance | peptide number according to binding strength [1] | peptide number among the top 20 peptide hits of mAb Mac2-158 [2] | group I [3] | group II [3] | group III [3] | ranked binding signal obtained from the microarray (01 binds strongest) [4]
1 | 318 (RDVYLQG) [compound 318] | 20 | – | – | – | – | –
2 | 321 (FGYSTPWGYF) [compound 321] | 09 | – | – | – | – | –
3 | 322 (GYSTPWGYFD) [compound 322] | 10 | – | – | – | – | –
4 | 323 (YSTPWGYFDF) [compound 323] | 11 | – | – | – | – | –
5 | 325 (TPWGYFDFNRFHC) [compound 325] | 18 | – | – | – | – | –
6 | 328 (YFGYSTPWGY) [compound 328] | 28 | – | – | – | – | –
7 | 329 (FGYSTPWGYFDFN) [compound 329] | 34 | – | – | – | – | –
8 | 330 (NWLPGPC) [compound 330] | 04 | – | – | – | – | –
9 | 331 (WLPGPCY) [compound 331] | 15 | – | – | – | – | –
10 | 336 (GCLPPFP) [compound 336] | 13 | – | – | – | – | –
11 | 337 (VLGSAHQGCLPPF) [compound 337] | 27 | – | – | – | – | –
12 | 338 (LPYVLGSAHQGCL) [compound 338] | 32 | – | – | – | – | –
13 | 339 (YVLGSAHQGC) [compound 339] | 37 | – | – | – | – | –
14 | 340 (CLPPFPA) [compound 340] | 38 | – | – | – | – | –
15 | 341 (SAHQGCLPPF) [compound 341] | 39 | – | – | – | – | –
16 | 342 (VLGSAHQGCL) [compound 342] | 45 | – | – | – | – | –
17 | 343 (PYVLGSAHQGCLP) [compound 343] | 46 | – | – | – | – | –
18 | 344 (GRSSFYC) [compound 344] | 14 | – | – | – | – | –
19 | 345 (AVGRSSFYCLEYF) [compound 345] | 22 | – | – | – | – | –
20 | 346 (AVGRSSFYCL) [compound 346] | 24 | – | – | – | – | –
21 | 347 (QAVGRSSFYCLEY) [compound 347] | 33 | – | – | – | – | –
22 | 348 (NGSQAVGRSSFYC) [compound 348] | 35 | – | – | – | – | –
23 | 349 (DQYLYYL) [compound 349] | 19 | – | – | – | – | –
24 | 350 (PLIDQYLYYL) [compound 350] | 29 | – | – | – | – | –
25 | 351 (IDQYLYY) [compound 351] | 36 | – | – | – | – | –

Row | Substance | peptide number according to binding strength [1] | peptide number among the top 20 peptide hits of mAb Mac2-158 [2] | group I [3] | group II [3] | group III [3] | ranked binding signal obtained from the microarray (01 binds strongest) [4]
26 | 365 (CSGRVEVKVQEEW) [compound 365] | – | 07 | – | – | – | –
27 | DAEFQERLKEDTSF (REGION 1..14: note = peptide derived from viral capsid protein) [SEQ ID NO: 1975] | – | – | X | X | X | 08
28 | DDEEKFFPMHGNLI [SEQ ID NO: 1976] | – | – | X | X | X | 09
29 | DGHFHPSPLMGGFG (REGION 1..14: note = peptide derived from viral capsid protein) [SEQ ID NO: 1977] | – | – | X | X | X | 10
30 | DSESVPDPQPLGEP (REGION 1..14: note = peptide derived from viral capsid protein) [SEQ ID NO: 1978] | – | – | X | X | X | 11
31 | EEEIRTTNPVATEQ (REGION 1..14: note = peptide derived from viral capsid protein) [SEQ ID NO: 1979] | – | – | X | X | X | 12
32 | EEIRTTNPVATEQY (REGION 1..14: note = peptide derived from viral capsid protein) [SEQ ID NO: 1980] | – | – | X | X | X | 13
33 | FNIQVKEVTTNDGV (REGION 1..14: note = peptide derived from viral capsid protein) [SEQ ID NO: 1910] | – | 06 | X | X | X | –
34 | FQERLKEDTSFGGN (REGION 1..14: note = peptide derived from viral capsid protein) [SEQ ID NO: 1981] | – | – | X | X | X | 14
35 | GADGVGNSSGNWHC (REGION 1..14: note = peptide derived from viral capsid protein) [SEQ ID NO: 1982] | – | – | X | X | X | 15
36 | GDSESVPDPQPLGE [SEQ ID NO: 1983] | – | – | X | X | X | 16
37 | GETTRPATAAQTQV [SEQ ID NO: 1906] | – | 01 | X | X | X | –
38 | GNGLDKGEPVNAAD [SEQ ID NO: 1984] | – | – | X | X | X | 17
39 | GQTGDSESVPDPQP [SEQ ID NO: 1911] | – | 08 | X | X | X | –
40 | IFNIQVKEVTTSNG (REGION 1..14: note = peptide derived from viral capsid protein) [SEQ ID NO: 1907] | – | 02 | X | X | X | –
41 | KKRPVDQSPQEPDS (REGION 1..14: note = peptide derived from viral capsid protein) [SEQ ID NO: 1985] | – | – | X | X | X | 18
42 | KRPVDQSPQEPDSS (REGION 1..14: note = peptide derived from viral capsid protein) [SEQ ID NO: 1986] | – | – | X | X | X | 19
43 | KSVNVDFTVDTNGV (REGION 1..14: note = peptide derived from viral capsid protein) [SEQ ID NO: 1987] | – | – | X | X | X | 20
44 | LSRTQSTGGTQGTQ [SEQ ID NO: 1973] | – | – | X | X | X | 06
45 | TIANNLTSTIQVFT (REGION 1..14: note = peptide derived from viral capsid protein) [SEQ ID NO: 1968] | – | – | X | X | X | 01
46 | TQGTQQLLFSQAGP [SEQ ID NO: 1974] | – | – | X | X | X | 07
47 | TQYSTGQVSVEIEW (REGION 1..14: note = peptide derived from viral capsid protein) [SEQ ID NO: 1969] | – | – | X | X | X | 02
48 | VTQNEGTKTIANNL [SEQ ID NO: 1970] | – | – | X | X | X | 03
49 | WLEDNLSEGIREWW (REGION 1..14: note = peptide derived from viral capsid protein) [SEQ ID NO: 1971] | – | – | X | X | X | 04
50 | YFGYSTPWGYFDFN (REGION 1..14: note = peptide derived from viral capsid protein) [SEQ ID NO: 1972] | – | – | X | X | X | 05
